Assay results from PubChem BioAssay AID330 (DTP/NCI, 2004).
Where “and” joins values, the source holds several entries; their conditions need not be identical. Identical values can stand only once. Inconclusive results and toxic doses are left out.

System: P388 leukemia ip, CD2F1 mice, survival T/C
Assay: NCI In Vivo Anticancer Drug Screen. Data for tumor model P388 Leukemia (intraperitoneal) in CD2F1 (CDF1) mice
Conditions: endpoint: median survival time, higher = longer survival
Procedure, shortened: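 Mice carrying the transplanted tumor received test compound or vehicle. Survival was recorded in each group, and the value is the treated-group measurement divided by that of the vehicle-treated control group.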

[1] = dose: 25.0 mg/kg/injection, schedule: Q01DX005 (ip), vehicle: Klucel (hydroxypropylcellulose) (HPC)
[2] = dose: 50.0 mg/kg/injection, schedule: Q01DX005 (ip), vehicle: Klucel (hydroxypropylcellulose) (HPC)
[3] = dose: 100.0 mg/kg/injection, schedule: Q01DX005 (ip), vehicle: Klucel (hydroxypropylcellulose) (HPC)
[4] = dose: 25.0 mg/kg/injection, schedule: Q01DX009 (ip), vehicle: saline with Tween-80
[5] = dose: 50.0 mg/kg/injection, schedule: Q01DX009 (ip), vehicle: saline with Tween-80
[6] = dose: 100.0 mg/kg/injection, schedule: Q01DX009 (ip), vehicle: saline with Tween-80
[7] = dose: 200.0 mg/kg/injection, schedule: Q01DX009 (ip), vehicle: saline with Tween-80
[8] = dose: 200.0 mg/kg/injection, schedule: Q01DX005 (ip), vehicle: Klucel (hydroxypropylcellulose) (HPC)
[9] = dose: 50.0 mg/kg/injection, schedule: Q01DX009 (ip), vehicle: Klucel (hydroxypropylcellulose) (HPC)
[10] = dose: 100.0 mg/kg/injection, schedule: Q01DX009 (ip), vehicle: Klucel (hydroxypropylcellulose) (HPC)
[11] = dose: 200.0 mg/kg/injection, schedule: Q01DX009 (ip), vehicle: Klucel (hydroxypropylcellulose) (HPC)

SMILES: CCCC(CCC)(C(=O)Nc1ccc2nc(C)cc(N)c2c1)C(=O)Nc1ccc2nc(C)cc(N)c2c1
- T/C (dose: 50.0 mg/kg/injection, schedule: Q01DX005 (ip), vehicle: saline with Tween-80): 91 % of control
- T/C (dose: 100.0 mg/kg/injection, schedule: Q01DX005 (ip), vehicle: saline with Tween-80): 96 % of control

SMILES: O=C(Nc1ccc(C2=NCCN2)cc1)c1cc(C(=O)Nc2ccc(C3=NCCN3)cc2)cc([N+](=O)[O-])c1
- T/C (dose: 167.0 mg/kg/injection, schedule: Q01DX010 (ip), vehicle: saline): 104 % of control
- T/C (dose: 250.0 mg/kg/injection, schedule: Q01DX010 (ip), vehicle: saline): 100 % of control
- T/C (dose: 375.0 mg/kg/injection, schedule: Q01DX010 (ip), vehicle: saline): 100 % of control
- T/C (dose: 512.0 mg/kg/injection, schedule: Q01DX010 (ip), vehicle: saline): 95 % of control

SMILES: C=C(Cl)C(=NC(C)(C)C)Nc1ccc(Cl)cc1
- T/C (dose: 6.25 mg/kg/injection, schedule: Q01DX005 (ip), vehicle: Klucel (hydroxypropylcellulose) (HPC)): 114 % of control
- T/C (dose: 12.5 mg/kg/injection, schedule: Q01DX005 (ip), vehicle: Klucel (hydroxypropylcellulose) (HPC)): 117 % of control
- T/C [1]: 112 % of control
- T/C [2]: 110 % of control
- T/C [3]: 115 % of control

SMILES: COC1OC(CO)C2OC12 (stereo unspecified)
- T/C (dose: 50.0 mg/kg/injection, schedule: Q01DX005 (ip), vehicle: saline): 93 % of control and 103 % of control
- T/C (dose: 100.0 mg/kg/injection, schedule: Q01DX005 (ip), vehicle: saline): 94 % of control and 100 % of control
- T/C (dose: 200.0 mg/kg/injection, schedule: Q01DX005 (ip), vehicle: saline): 88 % of control and 99 % of control

SMILES: Clc1ccc(N=Cc2ccc(C=Nc3ccc(Cl)c(Cl)c3)cc2)cc1Cl
- T/C [4]: 103 % of control
- T/C [5]: 90 % of control
- T/C [6]: 88 % of control
- T/C [7]: 94 % of control

SMILES: NC(N)=N/N=C1\C/C(=N\N=C(N)N)c2cc3ccccc3cc21
- T/C (dose: 12.5 mg/kg/injection, schedule: Q01DX001 (ip), vehicle: saline with Tween-80): 105 % of control
- T/C (dose: 25.0 mg/kg/injection, schedule: Q01DX001 (ip), vehicle: saline with Tween-80): 102 % of control
- T/C (dose: 25.0 mg/kg/injection, schedule: Q01DX001 (ip), vehicle: saline): 103 % of control
- T/C (dose: 50.0 mg/kg/injection, schedule: Q01DX001 (ip), vehicle: saline with Tween-80): 91 % of control
- T/C (dose: 50.0 mg/kg/injection, schedule: Q01DX001 (ip), vehicle: saline): 98 % of control
- T/C (dose: 100.0 mg/kg/injection, schedule: Q01DX001 (ip), vehicle: saline with Tween-80): 93 % of control
- T/C (dose: 100.0 mg/kg/injection, schedule: Q01DX001 (ip), vehicle: saline): 99 % of control

SMILES: CCOC(=O)C1Sc2c(c(=O)n(C)c3ccccc23)C1=O (stereo unspecified)
- T/C [2]: 101 % of control and 107 % of control and 110 % of control
- T/C [3]: 99 % of control and 105 % of control and 108 % of control
- T/C [8]: 108 % of control and 112 % of control and 123 % of control

SMILES: O=C1Oc2ccccc2C(=O)C1=Ic1ccccc1
- T/C [2]: 88 % of control
- T/C [3]: 94 % of control
- T/C [8]: 95 % of control

SMILES: C=C(C)c1nc(NCC)nc(NCC)n1
- T/C (dose: 100.0 mg/kg/injection, schedule: Q01DX001 (ip), vehicle: Klucel (hydroxypropylcellulose) (HPC)): 94 % of control
- T/C (dose: 200.0 mg/kg/injection, schedule: Q01DX001 (ip), vehicle: Klucel (hydroxypropylcellulose) (HPC)): 90 % of control
- T/C (dose: 400.0 mg/kg/injection, schedule: Q01DX001 (ip), vehicle: Klucel (hydroxypropylcellulose) (HPC)): 92 % of control

SMILES: CCCN1CCN(c2ccc([N+](=O)[O-])c3no[n+]([O-])c23)CC1
- T/C (dose: 1.25 mg/kg/injection, schedule: Q01DX009 (ip), vehicle: saline): 98 % of control and 97 % of control
- T/C (dose: 2.5 mg/kg/injection, schedule: Q01DX009 (ip), vehicle: saline): 100 % of control and 107 % of control
- T/C (dose: 5.0 mg/kg/injection, schedule: Q01DX009 (ip), vehicle: saline): 100 % of control and 108 % of control
- T/C (dose: 10.0 mg/kg/injection, schedule: Q01DX009 (ip), vehicle: saline): 110 % of control and 120 % of control

SMILES: CCn1c(=O)c2[nH]c(Cl)nc2n(C)c1=O
- T/C (dose: 16.0 mg/kg/injection, schedule: Q01DX009 (ip), vehicle: Klucel (hydroxypropylcellulose) (HPC)): 111 % of control
- T/C (dose: 25.0 mg/kg/injection, schedule: Q01DX009 (ip), vehicle: Klucel (hydroxypropylcellulose) (HPC)): 102 % of control
- T/C (dose: 32.0 mg/kg/injection, schedule: Q01DX009 (ip), vehicle: Klucel (hydroxypropylcellulose) (HPC)): 107 % of control
- T/C [9]: 94 % of control
- T/C (dose: 64.0 mg/kg/injection, schedule: Q01DX009 (ip), vehicle: Klucel (hydroxypropylcellulose) (HPC)): 102 % of control

SMILES: Cc1cc(Br)c(N)c(C(O)(C(F)(F)F)C(F)(F)F)c1
- T/C [9]: 91 % of control
- T/C [10]: 97 % of control
- T/C [11]: 108 % of control

SMILES: Nc1ccc(C(=O)CC(O)(C(F)(F)F)C(F)(F)F)cc1
- T/C (dose: 75.0 mg/kg/injection, schedule: Q04DX003 (ip), vehicle: saline with Tween-80): 95 % of control
- T/C (dose: 150.0 mg/kg/injection, schedule: Q04DX003 (ip), vehicle: saline with Tween-80): 95 % of control
- T/C (dose: 300.0 mg/kg/injection, schedule: Q04DX003 (ip), vehicle: saline with Tween-80): 100 % of control

SMILES: CC(C)CC(NCCC#N)C(=O)O (stereo unspecified)
- T/C [2]: 105 % of control
- T/C [3]: 105 % of control
- T/C [8]: 108 % of control

SMILES: CC(C)COC(CNC(=O)c1ccccc1)C(Cl)(Cl)Cl (stereo unspecified)
- T/C [5]: 100 % of control
- T/C [6]: 100 % of control
- T/C [7]: 110 % of control

SMILES: C=C1C(C)C2C(Cc3ccccc3)NC(=O)C23OC(=O)/C=C\CC(=O)CCC(C)C/C=C/C3C1O (stereo unspecified)
- T/C (dose: 5.0 mg/kg/injection, schedule: Q01DX009 (ip), vehicle: Klucel (hydroxypropylcellulose) (HPC)): 110 % of control
- T/C (dose: 10.0 mg/kg/injection, schedule: Q01DX009 (ip), vehicle: Klucel (hydroxypropylcellulose) (HPC)): 118 % of control

SMILES: COc1c2c(cc3c1C(O)N(C)CC3)OCO2 (stereo unspecified)
- T/C (dose: 30.0 mg/kg/injection, schedule: Q01DX005 (ip), vehicle: saline): 100 % of control
- T/C (dose: 60.0 mg/kg/injection, schedule: Q01DX005 (ip), vehicle: saline): 100 % of control and 93 % of control

SMILES: CC1(C)COC(=O)C(C)(C2(C)NC(C)(C)COC2=O)N1 (stereo unspecified)
- T/C [4]: 99 % of control
- T/C [5]: 102 % of control
- T/C [6]: 101 % of control
- T/C (dose: 200.0 mg/kg/injection, schedule: Q01DX001 (ip), vehicle: saline with Tween-80): 95 % of control
- T/C [7]: 114 % of control
- T/C (dose: 400.0 mg/kg/injection, schedule: Q01DX001 (ip), vehicle: saline with Tween-80): 97 % of control
- T/C (dose: 400.0 mg/kg/injection, schedule: Q01DX009 (ip), vehicle: saline with Tween-80): 106 % of control
- T/C (dose: 800.0 mg/kg/injection, schedule: Q01DX001 (ip), vehicle: saline with Tween-80): 101 % of control

SMILES: Cc1ccc(O)c(C(=NCCCCN=C(c2ccccc2)c2cc(C)ccc2O)c2ccccc2)c1.[Ni]
- T/C [1]: 97 % of control
- T/C [2]: 97 % of control
- T/C [3]: 103 % of control
- T/C [8]: 94 % of control

SMILES: CCCCNC(=S)NC1C2CC3CC(C2)CC1C3 (stereo unspecified)
- T/C [9]: 97 % of control
- T/C [10]: 98 % of control
- T/C [11]: 101 % of control

SMILES: c1cc2sc3ccc(OCCCN4CCCCC4)cc3c2cc1OCCCN1CCCCC1
- T/C (dose: 12.5 mg/kg/injection, schedule: Q01DX009 (ip), vehicle: saline with Tween-80): 104 % of control
- T/C [4]: 115 % of control
- T/C [5]: 91 % of control

SMILES: CCC1C2Cc3ccc(O)cc3C1(CC)CCN2Cc1ccoc1 (stereo unspecified)
- T/C [5]: 96 % of control
- T/C [6]: 88 % of control
- T/C [7]: 91 % of control

SMILES: CC(=O)SC12CCCN1C(=O)C1CCCN1C2=O (stereo unspecified)
- T/C (dose: 100.0 mg/kg/injection, schedule: Q04DX002 (ip), vehicle: saline): 100 % of control
- T/C (dose: 200.0 mg/kg/injection, schedule: Q04DX002 (ip), vehicle: saline): 111 % of control
- T/C (dose: 400.0 mg/kg/injection, schedule: Q04DX002 (ip), vehicle: saline): 117 % of control

SMILES: C[n+]1c(-c2cccc(OCCCCCCCCCCOc3cccc(-c4c5cc(N)ccc5c5ccc(N)cc5[n+]4C)c3)c2)c2cc(N)ccc2c2ccc(N)cc21
- T/C (dose: 0.39 mg/kg/injection, schedule: Q01DX005 (ip), vehicle: water): 168 % of control
- T/C (dose: 0.78 mg/kg/injection, schedule: Q01DX005 (ip), vehicle: water): 153 % of control and 168 % of control
- T/C (dose: 0.78 mg/kg/injection, schedule: Q01DX009 (ip), vehicle: water): 153 % of control
- T/C (dose: 1.56 mg/kg/injection, schedule: Q01DX005 (ip), vehicle: water): 174 % of control
- T/C (dose: 1.56 mg/kg/injection, schedule: Q01DX009 (ip), vehicle: water): 170 % of control
- T/C (dose: 3.0 mg/kg/injection, schedule: Q01DX009 (ip), vehicle: water): 169 % of control
- T/C (dose: 3.12 mg/kg/injection, schedule: Q01DX009 (ip), vehicle: water): 153 % of control
- T/C (dose: 6.25 mg/kg/injection, schedule: Q01DX009 (ip), vehicle: water): 122 % of control
